Reference: the supplement of paper PMC5662764
± gives the standard deviation of the averaged measurements.

Experiments:
Test in all cases: normalised growth rate inhibition (GR value) relative to DMSO control (GR (1 = untreated growth, 0 = cytostasis, <0 = cytotoxic)); higher = less growth inhibition
Conditions in all cases: 72 h
BT20 = system: BT20
Summary of the method: (§1)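 Six breast cell lines were seeded in 384-well plates and dosed 24 h later with drugs at 0.04–10 µM for 72 h. Cells were stained with Hoechst 33342 and Fixable Far Red Dead Cell Stain, fixed in 3% formaldehyde and imaged on an Operetta; viable cells were counted in Columbus. Normalised growth rate inhibition was computed from counts relative to same-plate DMSO wells and a day-0 plate. Technical plate replicates (generally three) were averaged.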

MDAMB231 = system: MDAMB231
Summary of the method: as §1

SKBR3 = system: SKBR3
Summary of the method: as §1

MCF10A = system: MCF10A
Summary of the method: as §1

MCF7 = system: MCF7
Summary of the method: as §1

HS578T = system: HS578T
Summary of the method: as §1

Row | SMILES | normalised growth rate inhibition (BT20; 0.04 µM) | normalised growth rate inhibition (BT20; 0.12 µM) | normalised growth rate inhibition (BT20; 0.37 µM) | normalised growth rate inhibition (BT20; 1.11 µM) | normalised growth rate inhibition (BT20; 3.33 µM) | normalised growth rate inhibition (BT20; 10 µM) | normalised growth rate inhibition (MDAMB231; 0.04 µM) | normalised growth rate inhibition (MDAMB231; 0.12 µM) | normalised growth rate inhibition (MDAMB231; 0.37 µM) | normalised growth rate inhibition (MDAMB231; 1.11 µM) | normalised growth rate inhibition (MDAMB231; 3.33 µM) | normalised growth rate inhibition (MDAMB231; 10 µM) | normalised growth rate inhibition (SKBR3; 0.04 µM) | normalised growth rate inhibition (SKBR3; 0.12 µM) | normalised growth rate inhibition (SKBR3; 0.37 µM) | normalised growth rate inhibition (SKBR3; 1.11 µM) | normalised growth rate inhibition (SKBR3; 3.33 µM) | normalised growth rate inhibition (SKBR3; 10 µM) | normalised growth rate inhibition (MCF10A; 0.04 µM) | normalised growth rate inhibition (MCF10A; 0.12 µM) | normalised growth rate inhibition (MCF10A; 0.37 µM) | normalised growth rate inhibition (MCF10A; 1.11 µM) | normalised growth rate inhibition (MCF10A; 3.33 µM) | normalised growth rate inhibition (MCF10A; 10 µM) | normalised growth rate inhibition (MCF7; 0.04 µM) | normalised growth rate inhibition (MCF7; 0.12 µM) | normalised growth rate inhibition (MCF7; 0.37 µM) | normalised growth rate inhibition (MCF7; 1.11 µM) | normalised growth rate inhibition (MCF7; 3.33 µM) | normalised growth rate inhibition (MCF7; 10 µM) | normalised growth rate inhibition (HS578T; 0.04 µM) | normalised growth rate inhibition (HS578T; 0.12 µM) | normalised growth rate inhibition (HS578T; 0.37 µM) | normalised growth rate inhibition (HS578T; 1.11 µM) | normalised growth rate inhibition (HS578T; 3.33 µM) | normalised growth rate inhibition (HS578T; 10 µM)
1 | CCOc1cc2ncc(C#N)c(Nc3ccc(OCc4ccccn4)c(Cl)c3)c2cc1NC(=O)/C=C/CN(C)C [neratinib] | 0.724 ± 0.042 | 0.669 ± 0.069 | 0.617 ± 0.11 | 0.528 ± 0.11 | 0.41 ± 0.12 | 0.301 ± 0.13 | 0.907 ± 0.13 | 0.868 ± 0.15 | 0.728 ± 0.12 | 0.581 ± 0.23 | 0.387 ± 0.29 | 0.0691 ± 0.39 | -0.108 ± 0.19 | -0.114 ± 0.2 | -0.14 ± 0.19 | -0.118 ± 0.22 | -0.152 ± 0.22 | -0.215 ± 0.19 | 0.441 ± 0.24 | 0.314 ± 0.19 | 0.191 ± 0.11 | 0.168 ± 0.098 | 0.131 ± 0.058 | 0.122 ± 0.054 | 0.722 ± 0.12 | 0.663 ± 0.081 | 0.585 ± 0.042 | 0.419 ± 0.23 | 0.299 ± 0.21 | 0.0822 ± 0.12 | 0.887 ± 0.0023 | 0.81 ± 0.0089 | 0.649 ± 0.085 | 0.485 ± 0.22 | 0.274 ± 0.24 | 0.0282 ± 0.1
2 | CCc1cc(Nc2nccc(-c3c(-c4ccc(OC)c(C(=O)Nc5c(F)cccc5F)c4)nc4ccccn34)n2)c(OC)cc1N1CCC(N2CCN(S(C)(=O)=O)CC2)CC1 | 0.821 ± 0.056 | 0.902 ± 0.036 | 0.916 ± 0.017 | 0.937 ± 0.042 | 0.961 ± 0.029 | 0.999 ± 0.043 | 0.813 ± 0.093 | 0.864 ± 0.045 | 0.893 ± 0.027 | 0.9 ± 0.011 | 0.971 ± 0.02 | 0.939 ± 0.024 | 0.701 ± 0.094 | 0.841 ± 0.045 | 0.98 ± 0.02 | 0.986 ± 0.057 | 1.04 ± 0.023 | 1.05 ± 0.027 | 0.719 ± 0.2 | 0.699 ± 0.19 | 0.656 ± 0.22 | 0.608 ± 0.23 | 0.621 ± 0.23 | 0.634 ± 0.18 | 0.473 ± 0.16 | 0.418 ± 0.17 | 0.404 ± 0.092 | 0.363 ± 0.081 | 0.358 ± 0.069 | 0.319 ± 0.091 | 0.96 ± 0.025 | 0.958 ± 0.013 | 0.965 ± 0.017 | 0.931 ± 0.024 | 0.951 ± 0.032 | 0.955 ± 0.023
3 | Cc1cc([C@@H](C)Nc2ccccc2C(=O)O)c2nc(N3CCOCC3)cc(=O)n2c1 [AZD-6482] | 0.974 ± 0.05 | 0.895 ± 0.079 | 0.758 ± 0.059 | 0.52 ± 0.078 | 0.245 ± 0.08 | -0.0918 ± 0.069 | 0.932 ± 0.013 | 0.888 ± 0.0098 | 0.867 ± 0.023 | 0.752 ± 0.083 | 0.648 ± 0.11 | 0.446 ± 0.21 | 0.988 ± 0.013 | 0.915 ± 0.063 | 1 ± 0.077 | 0.87 ± 0.072 | 0.404 ± 0.078 | -0.107 ± 0.21 | 0.993 ± 0.019 | 0.952 ± 0.056 | 0.938 ± 0.055 | 0.891 ± 0.094 | 0.842 ± 0.14 | 0.36 ± 0.24 | 1.05 ± 0.078 | 0.954 ± 0.065 | 0.988 ± 0.066 | 0.906 ± 0.029 | 0.673 ± 0.078 | 0.0729 ± 0.13 | 0.929 ± 0.03 | 0.89 ± 0.023 | 0.855 ± 0.034 | 0.768 ± 0.039 | 0.678 ± 0.092 | 0.337 ± 0.16
4 | COc1cc2ncn(-c3cc(OCc4ccccc4C(F)(F)F)c(C(N)=O)s3)c2cc1OC | 0.853 ± 0.061 | 0.614 ± 0.18 | 0.331 ± 0.27 | -0.00404 ± 0.12 | -0.126 ± 0.06 | -0.0325 ± 0.31 | 0.892 ± 0.064 | 0.736 ± 0.11 | 0.404 ± 0.12 | 0.0556 ± 0.12 | -0.0347 ± 0.12 | 0.0238 ± 0.14 | 0.847 ± 0.018 | 0.463 ± 0.19 | -0.0831 ± 0.12 | -0.157 ± 0.18 | -0.213 ± 0.17 | 0.0233 ± 0.42 | 0.96 ± 0.027 | 0.817 ± 0.083 | 0.412 ± 0.13 | 0.0464 ± 0.034 | -0.0733 ± 0.13 | -0.101 ± 0.17 | 0.68 ± 0.15 | 0.279 ± 0.18 | 0.14 ± 0.023 | 0.072 ± 0.019 | 0.0415 ± 0.007 | 0.167 ± 0.099 | 0.959 ± 0.075 | 0.603 ± 0.19 | 0.0393 ± 0.039 | -0.137 ± 0.087 | -0.145 ± 0.12 | 0.00336 ± 0.2
